For two compounds, IC50 results are on record in BindingDB's records for doi:10.1016/j.ejmech.2016.02.023 (Rhône-Poulenc Rorer, 2016).

The experiment in a line: Antagonist activity at CRTH2 receptor in human eosinophils by ESC assay.

The structures appear in SMILES notation. pIC50: −log10 of the molar value.

`COc1ccc(S(=O)(=O)c2ccc(F)cc2)c(Cc2c(C)c(CC(=O)O)c3ccncn23)c1` had a pIC50 of 8.22. As for `Cc1c(CC(=O)O)c2ccncn2c1Cc1ccccc1S(=O)(=O)c1ccccc1`, the figure is 7.92.

What is called pIC50 is the negative decadic logarithm of the IC50, by convention in mol/L.
